Data reported in patent US20250215012A1, “IKZF2 DEGRADERS AND USES THEREOF” (REGENTS OF THE UNIVERSITY OF MICHIGAN, priority 2022, published 2025).

Molecular target: IKZF2 (Homo sapiens (Human), UniProt Q96SW2+Q9UKS7)
Experiment: IKZF2 HiBiT Assay (Jurkat-IKZF2-HiBiT cell line)
Assay type: cell-based
Conditions: Jurkat-IKZF2-HiBiT cells, 24 hours; for DC50: read-out: HiBit assay degradation analysis DC50; for Dmax: read-out: HiBit assay degradation analysis Dmax
In short: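 IKZF2 degradation was assessed as HiBiT luminescence in Jurkat-IKZF2-HiBiT cells, using lytic detection after 24 h of compound treatment at 37 °C, 5% CO2.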

Chain of IKZF2 (Q9UKS7 whole entry): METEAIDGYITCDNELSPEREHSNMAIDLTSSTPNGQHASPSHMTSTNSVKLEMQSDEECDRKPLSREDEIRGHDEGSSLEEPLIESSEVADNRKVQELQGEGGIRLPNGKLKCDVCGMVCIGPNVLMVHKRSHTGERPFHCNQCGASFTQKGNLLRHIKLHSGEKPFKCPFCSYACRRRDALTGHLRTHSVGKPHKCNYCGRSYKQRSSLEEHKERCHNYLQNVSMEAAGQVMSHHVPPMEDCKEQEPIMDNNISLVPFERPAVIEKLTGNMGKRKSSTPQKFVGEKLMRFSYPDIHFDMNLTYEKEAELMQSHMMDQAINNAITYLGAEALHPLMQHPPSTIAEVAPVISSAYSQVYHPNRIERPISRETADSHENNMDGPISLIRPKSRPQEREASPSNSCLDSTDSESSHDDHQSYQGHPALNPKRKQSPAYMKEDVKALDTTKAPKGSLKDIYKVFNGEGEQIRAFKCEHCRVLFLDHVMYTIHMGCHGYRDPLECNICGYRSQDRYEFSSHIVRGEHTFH
Chain of IKZF2 (Q96SW2 whole entry): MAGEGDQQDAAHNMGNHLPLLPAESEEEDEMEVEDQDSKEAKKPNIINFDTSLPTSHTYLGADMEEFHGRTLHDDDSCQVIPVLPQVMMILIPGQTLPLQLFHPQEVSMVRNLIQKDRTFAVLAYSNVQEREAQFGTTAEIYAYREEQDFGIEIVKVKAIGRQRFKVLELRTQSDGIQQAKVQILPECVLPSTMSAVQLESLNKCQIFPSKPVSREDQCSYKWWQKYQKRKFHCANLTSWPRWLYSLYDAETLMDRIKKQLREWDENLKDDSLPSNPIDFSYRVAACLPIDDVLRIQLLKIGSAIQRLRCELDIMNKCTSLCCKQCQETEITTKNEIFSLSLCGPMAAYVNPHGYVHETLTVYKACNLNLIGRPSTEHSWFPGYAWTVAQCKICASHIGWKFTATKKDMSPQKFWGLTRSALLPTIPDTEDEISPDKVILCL
Chain of IKZF2 (Q16531 whole entry partner): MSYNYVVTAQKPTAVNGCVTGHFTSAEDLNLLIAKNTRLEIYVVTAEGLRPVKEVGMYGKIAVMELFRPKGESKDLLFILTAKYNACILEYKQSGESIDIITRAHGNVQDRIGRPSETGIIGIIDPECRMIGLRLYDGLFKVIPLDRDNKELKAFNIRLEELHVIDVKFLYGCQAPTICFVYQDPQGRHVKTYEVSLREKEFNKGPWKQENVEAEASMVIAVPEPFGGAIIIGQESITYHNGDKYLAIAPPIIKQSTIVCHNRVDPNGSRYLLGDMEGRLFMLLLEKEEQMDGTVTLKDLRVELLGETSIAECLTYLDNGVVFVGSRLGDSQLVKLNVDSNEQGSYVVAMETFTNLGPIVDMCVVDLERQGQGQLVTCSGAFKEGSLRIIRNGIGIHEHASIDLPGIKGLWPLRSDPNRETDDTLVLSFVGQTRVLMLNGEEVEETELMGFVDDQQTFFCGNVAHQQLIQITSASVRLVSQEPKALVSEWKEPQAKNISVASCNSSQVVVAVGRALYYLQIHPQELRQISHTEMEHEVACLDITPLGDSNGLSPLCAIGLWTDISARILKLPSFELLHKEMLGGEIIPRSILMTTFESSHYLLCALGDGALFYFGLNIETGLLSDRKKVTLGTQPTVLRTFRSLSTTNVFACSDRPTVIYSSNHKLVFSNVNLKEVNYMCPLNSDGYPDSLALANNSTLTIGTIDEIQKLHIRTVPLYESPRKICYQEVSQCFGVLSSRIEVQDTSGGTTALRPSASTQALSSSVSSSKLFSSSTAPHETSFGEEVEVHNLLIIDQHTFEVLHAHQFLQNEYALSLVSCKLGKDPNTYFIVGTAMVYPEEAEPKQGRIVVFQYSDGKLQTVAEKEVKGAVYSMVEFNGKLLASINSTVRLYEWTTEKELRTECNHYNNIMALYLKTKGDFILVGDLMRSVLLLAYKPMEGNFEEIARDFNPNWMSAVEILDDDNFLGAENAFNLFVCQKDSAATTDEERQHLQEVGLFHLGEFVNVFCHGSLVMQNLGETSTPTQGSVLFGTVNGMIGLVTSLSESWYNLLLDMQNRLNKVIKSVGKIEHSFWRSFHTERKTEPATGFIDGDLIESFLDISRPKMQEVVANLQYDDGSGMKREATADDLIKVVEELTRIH

In the case of `Cc1cccc(CN2CCC3(CC2)COc2c3ccc3c2CN(C2CCC(=O)NC2=O)C3=O)c1` (stereo not drawn) [Compound A213, 3-(1′-(3-methylbenzyl)-6-oxo-6,8-dihydro-2H,7H-spiro[furo[2,3-e]isoindole-3,4′-piperidin]-7-yl)piperidine-2,6-dione], the DC50 is reported as < 50 nM and the Dmax is reported as 60 to 80%.
Molecule `O=C1CCC(N2Cc3c(ccc4c3OCC43CCN(Cc4ccccc4Cl)CC3)C2=O)C(=O)N1` (stereo not drawn) [Compound A214, 3-(1′-(2-chlorobenzyl)-6-oxo-6,8-dihydro-2H,7H-spiro[furo[2,3-e]isoindole-3,4′-piperidin]-7-yl)piperidine-2,6-dione] has a DC50 of 200 to 500 nM and a Dmax of 40 to 60%.
For `COc1ccccc1CN1CCC2(CC1)COc1c2ccc2c1CN(C1CCC(=O)NC1=O)C2=O` (stereo not drawn) [Compound A215, 3-(1′-(2-methoxybenzyl)-6-oxo-6,8-dihydro-2H,7H-spiro[furo[2,3-e]isoindole-3,4′-piperidin]-7-yl)piperidine-2,6-dione], the DC50 was 200 to 500 nM and the Dmax was 40 to 60%.
`O=C1CCC(N2Cc3c(ccc4c3OCC43CCN(Cc4cccc(Cl)c4)CC3)C2=O)C(=O)N1` (stereo not drawn) [Compound A216, 3-(1′-(3-chlorobenzyl)-6-oxo-6,8-dihydro-2H,7H-spiro[furo[2,3-e]isoindole-3,4′-piperidin]-7-yl)piperidine-2,6-dione] showed a DC50 of 50 to 200 nM and a Dmax of 60 to 80%.
In the case of `Cn1ncc2cc(CN3CCC4(CC3)COc3c4ccc4c3CN(C3CCC(=O)NC3=O)C4=O)ccc21` (stereo not drawn) [Compound A217, 3-(1′-((1-methyl-1H-indazol-5-yl)methyl)-6-oxo-6,8-dihydro-2H,7H-spiro[furo[2,3-e]isoindole-3,4′-piperidin]-7-yl)piperidine-2,6-dione], the DC50 is reported as > 500 nM and the Dmax is reported as < 40%.
`O=C1CCC(N2Cc3c(ccc4c3OCC43CCN(Cc4cccc5c4CCCO5)CC3)C2=O)C(=O)N1` (stereo not drawn) [Compound A218, 3-(1′-(chroman-5-ylmethyl)-6-oxo-6,8-dihydro-2H,7H-spiro[furo[2,3-e]isoindole-3,4′-piperidin]-7-yl)piperidine-2,6-dione] was tested, and the DC50 was < 50 nM and the Dmax was 60 to 80%.
With `N#Cc1cccc(CN2CCC3(CC2)COc2c3ccc3c2CN(C2CCC(=O)NC2=O)C3=O)c1` (stereo not drawn) [Compound A219, 3-((7-(2,6-dioxopiperidin-3-yl)-6-oxo-7,8-dihydro-2H,6H-spiro[furo[2,3-e]isoindole-3,4′-piperidin]-1′-yl)methyl)benzonitrile] the DC50 was 200 to 500 nM and the Dmax was 40 to 60%.
For `O=C1CCC(N2Cc3c(ccc4c3OCC43CCN(Cc4cnn(C5CCCCC5)c4)CC3)C2=O)C(=O)N1` (stereo not drawn) [Compound A220, 3-(1′-((1-cyclohexyl-1H-pyrazol-4-yl)methyl)-6-oxo-6,8-dihydro-2H,7H-spiro[furo[2,3-e]isoindole-3,4′-piperidin]-7-yl)piperidine-2,6-dione], the DC50 was > 500 nM and the Dmax was < 40%.
With `O=C1CCC(N2Cc3c(ccc4c3OCC43CCN(Cc4cnn(-c5ccccc5)c4)CC3)C2=O)C(=O)N1` (stereo not drawn) [Compound A221, 3-(6-oxo-1′-((1-phenyl-1H-pyrazol-4-yl)methyl)-6,8-dihydro-2H,7H-spiro[furo[2,3-e]isoindole-3,4′-piperidin]-7-yl)piperidine-2,6-dione] the DC50 was > 500 nM and the Dmax was 40 to 60%.
In the case of `O=C1CCC(N2Cc3c(ccc4c3OCC43CCN(Cc4ccc(-n5cccn5)cc4)CC3)C2=O)C(=O)N1` (stereo not drawn) [Compound A222, 3-(1′-(4-(1H-pyrazol-1-yl)benzyl)-6-oxo-6,8-dihydro-2H,7H-spiro[furo[2,3-e]isoindole-3,4′-piperidin]-7-yl)piperidine-2,6-dione], the DC50 is reported as > 500 nM and the Dmax is reported as 40 to 60%.
For `O=C1CCC(N2Cc3c(ccc4c3OCC43CCN(Cc4c(F)ccc5occc45)CC3)C2=O)C(=O)N1` (stereo not drawn) [Compound A223, 3-(1′-((5-fluorobenzofuran-4-yl)methyl)-6-oxo-6,8-dihydro-2H,7H-spiro[furo[2,3-e]isoindole-3,4′-piperidin]-7-yl)piperidine-2,6-dione], the DC50 was 200 to 500 nM and the Dmax was 40 to 60%.
In the case of `O=C1CCC(N2Cc3c(ccc4c3OCC43CCN(Cc4cccc5c4OCC5)CC3)C2=O)C(=O)N1` (stereo not drawn) [Compound A224, 3-(1′-((2,3-dihydrobenzofuran-7-yl)methyl)-6-oxo-6,8-dihydro-2H,7H-spiro[furo[2,3-e]isoindole-3,4′-piperidin]-7-yl)piperidine-2,6-dione], the DC50 is reported as 200 to 500 nM and the Dmax is reported as 40 to 60%.
For `O=C1CCC(N2Cc3c(ccc4c3OCC43CCN(Cc4cccc5c4OCO5)CC3)C2=O)C(=O)N1` (stereo not drawn) [Compound A225, 3-(1′-(benzo[d][1,3]dioxol-4-ylmethyl)-6-oxo-6,8-dihydro-2H,7H-spiro[furo[2,3-e]isoindole-3,4′-piperidin]-7-yl)piperidine-2,6-dione], the DC50 was > 500 nM and the Dmax was 40 to 60%.
With `Cn1nc(CN2CCC3(CC2)COc2c3ccc3c2CN(C2CCC(=O)NC2=O)C3=O)c2ccccc21` (stereo not drawn) [Compound A226, 3-(1′-((1-methyl-1H-indazol-3-yl)methyl)-6-oxo-6,8-dihydro-2H,7H-spiro[furo[2,3-e]isoindole-3,4′-piperidin]-7-yl)piperidine-2,6-dione] the DC50 was > 500 nM and the Dmax was 40 to 60%.
For `O=C1CCC(N2Cc3c(ccc4c3OCC43CCN(Cc4n[nH]c5ccccc45)CC3)C2=O)C(=O)N1` (stereo not drawn) [Compound A227, 3-(1′-((1H-indazol-3-yl)methyl)-6-oxo-6,8-dihydro-2H,7H-spiro[furo[2,3-e]isoindole-3,4′-piperidin]-7-yl)piperidine-2,6-dione], the DC50 was > 500 nM and the Dmax was 40 to 60%.
In the case of `Cn1cc(CN2CCC3(CC2)COc2c3ccc3c2CN(C2CCC(=O)NC2=O)C3=O)cn1` (stereo not drawn) [Compound A228, 3-(1′-((1-methyl-1H-pyrazol-4-yl)methyl)-6-oxo-6,8-dihydro-2H,7H-spiro[furo[2,3-e]isoindole-3,4′-piperidin]-7-yl)piperidine-2,6-dione], the DC50 is reported as > 500 nM and the Dmax is reported as < 40%.
For `CCn1cc(CN2CCC3(CC2)COc2c3ccc3c2CN(C2CCC(=O)NC2=O)C3=O)cn1` (stereo not drawn) [Compound A229, 3-(1′-((1-ethyl-1H-pyrazol-4-yl)methyl)-6-oxo-6,8-dihydro-2H,7H-spiro[furo[2,3-e]isoindole-3,4′-piperidin]-7-yl)piperidine-2,6-dione], the DC50 was > 500 nM and the Dmax was 40 to 60%.
`O=C1CCC(N2Cc3c(ccc4c3OCC43CCN(Cc4cnn(C5CC5)c4)CC3)C2=O)C(=O)N1` (stereo not drawn) [Compound A230, 3-(1′-((1-cyclopropyl-1H-pyrazol-4-yl)methyl)-6-oxo-6,8-dihydro-2H,7H-spiro[furo[2,3-e]isoindole-3,4′-piperidin]-7-yl)piperidine-2,6-dione] was tested, and the DC50 was > 500 nM and the Dmax was 40 to 60%.
`O=C1CCC(N2Cc3c(ccc4c3OCC43CCN(Cc4cnn(CC5CC5)c4)CC3)C2=O)C(=O)N1` (stereo not drawn) [Compound A231, 3-(1′-((1-(cyclopropylmethyl)-1H-pyrazol-4-yl)methyl)-6-oxo-6,8-dihydro-2H,7H-spiro[furo[2,3-e]isoindole-3,4′-piperidin]-7-yl)piperidine-2,6-dione] was tested, and the DC50 was 200 to 500 nM and the Dmax was 60 to 80%.
With `O=C1CCC(N2Cc3c(ccc4c3OCC43CCN(Cc4cnn(CC(F)(F)F)c4)CC3)C2=O)C(=O)N1` (stereo not drawn) [Compound A232, 3-(6-oxo-1′-((1-(2,2,2-trifluoroethyl)-1H-pyrazol-4-yl)methyl)-6,8-dihydro-2H,7H-spiro[furo[2,3-e]isoindole-3,4′-piperidin]-7-yl)piperidine-2,6-dione] the DC50 was > 500 nM and the Dmax was 40 to 60%.
`O=C1CCC(N2Cc3c(ccc4c3OCC43CCN(Cc4cnn(CC5CCOCC5)c4)CC3)C2=O)C(=O)N1` (stereo not drawn) [Compound A233, 3-(6-oxo-1′-((1-((tetrahydro-2H-pyran-4-yl)methyl)-1H-pyrazol-4-yl)methyl)-6,8-dihydro-2H,7H-spiro[furo[2,3-e]isoindole-3,4′-piperidin]-7-yl)piperidine-2,6-dione] was tested, and the DC50 was 200 to 500 nM and the Dmax was 60 to 80%.
For `CS(=O)(=O)c1ccccc1CN1CCC2(CC1)COc1c2ccc2c1CN(C1CCC(=O)NC1=O)C2=O` (stereo not drawn) [Compound A234, 3-(1′-(2-(methylsulfonyl)benzyl)-6-oxo-6,8-dihydro-2H,7H-spiro[furo[2,3-e]isoindole-3,4′-piperidin]-7-yl)piperidine-2,6-dione], the DC50 was > 500 nM and the Dmax was < 40%.
In the case of `CS(=O)(=O)c1cccc(CN2CCC3(CC2)COc2c3ccc3c2CN(C2CCC(=O)NC2=O)C3=O)c1` (stereo not drawn) [Compound A235, 3-(1′-(3-(methylsulfonyl)benzyl)-6-oxo-6,8-dihydro-2H,7H-spiro[furo[2,3-e]isoindole-3,4′-piperidin]-7-yl)piperidine-2,6-dione], the DC50 is reported as > 500 nM and the Dmax is reported as < 40%.
For `CS(=O)(=O)c1ccc(CN2CCC3(CC2)COc2c3ccc3c2CN(C2CCC(=O)NC2=O)C3=O)cc1` (stereo not drawn) [Compound A236, 3-(1′-(4-(methylsulfonyl)benzyl)-6-oxo-6,8-dihydro-2H,7H-spiro[furo[2,3-e]isoindole-3,4′-piperidin]-7-yl)piperidine-2,6-dione], the DC50 was > 500 nM and the Dmax was < 40%.
For `O=C1CCC(N2Cc3c(ccc4c3OCC43CCN(Cc4cnn(Cc5ccc(F)cc5)c4)CC3)C2=O)C(=O)N1` (stereo not drawn) [Compound A237, 3-(1′-((1-(4-fluorobenzyl)-1H-pyrazol-4-yl)methyl)-6-oxo-6,8-dihydro-2H,7H-spiro[furo[2,3-e]isoindole-3,4′-piperidin]-7-yl)piperidine-2,6-dione], the DC50 was 50 to 200 nM and the Dmax was 60 to 80%.
`O=C1CCC(N2Cc3c(ccc4c3OCC43CCN(Cc4cnn(Cc5cccc(F)c5)c4)CC3)C2=O)C(=O)N1` (stereo not drawn) [Compound A238, 3-(1′-((1-(3-fluorobenzyl)-1H-pyrazol-4-yl)methyl)-6-oxo-6,8-dihydro-2H,7H-spiro[furo[2,3-e]isoindole-3,4′-piperidin]-7-yl)piperidine-2,6-dione] was tested, and the DC50 was < 50 nM and the Dmax was 60 to 80%.
`O=C1CCC(N2Cc3c(ccc4c3OCC43CCN(Cc4cnn(Cc5ccccc5F)c4)CC3)C2=O)C(=O)N1` (stereo not drawn) [Compound A239, 3-(1′-((1-(2-fluorobenzyl)-1H-pyrazol-4-yl)methyl)-6-oxo-6,8-dihydro-2H,7H-spiro[furo[2,3-e]isoindole-3,4′-piperidin]-7-yl)piperidine-2,6-dione] was tested, and the DC50 was < 50 nM and the Dmax was 60 to 80%.
